This note sets out measurements from patent US10508077B2 (FORMA Therapeutics, Inc., priority 2015, dated 2019).

In general, IC50 refers to the concentration at which inhibition is half-maximal.

Assay [1] concerns the target T1, Recombinant N-terminal GST tag full-length human HDAC8 (Homo sapiens, UniProt Q9BY41).
T1 construct: Recombinant N-terminal GST tag full-length human HDAC8; purchased SignalChem H90-30G-1000; host or cells: Sf9 insect cells (baculovirus)
T1 sequence (Q9BY41 1-377): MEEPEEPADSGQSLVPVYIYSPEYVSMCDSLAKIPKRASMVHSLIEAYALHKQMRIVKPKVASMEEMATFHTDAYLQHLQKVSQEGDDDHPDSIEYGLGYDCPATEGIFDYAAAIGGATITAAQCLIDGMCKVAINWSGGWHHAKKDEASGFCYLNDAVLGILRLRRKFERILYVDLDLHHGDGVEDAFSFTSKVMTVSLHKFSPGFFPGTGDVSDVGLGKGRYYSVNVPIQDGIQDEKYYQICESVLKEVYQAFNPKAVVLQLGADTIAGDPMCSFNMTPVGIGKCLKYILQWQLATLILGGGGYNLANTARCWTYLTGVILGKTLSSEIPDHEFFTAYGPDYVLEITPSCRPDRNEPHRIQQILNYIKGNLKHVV
In words: HDAC8 probe binding assay, time resolved fluorescence (TRF). The conditions noted are these: fluorescein labeled pan-HDAC inhibitor probe, 16 hours incubation, compounds listed under IC50 range headings. The essentials: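 TR-FRET probe displacement using GST-tagged full-length human HDAC8 (Sf9-expressed, 2.5 nM) with 1.5 nM fluorescein-labelled pan-HDAC inhibitor probe and anti-GST terbium, in HEPES pH 7.5 buffer with GSH, BGG, Triton X-100. Compounds 25 μM–1.3 nM, 10-point; 16 h at room temperature. IC50 from 4-parameter fit of % inhibition versus no-enzyme and DMSO controls.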

The target in assay [2] is T2, Full length human recombinant HDAC8 protein (Homo sapiens, UniProt Q9BY41).
T2 construct: Full length human recombinant HDAC8 protein was expressed in baculoviral system; made in house
T2 sequence (Q9BY41 1-377): T1 sequence (Q9BY41 1-377)
Nature of the assay: In vitro histone deacetylase assay: enzymatic HDAC8 assay, electrophoretic mobility shift. Particulars: substrate RHKK(Ac)-NH2, 1 nM enzyme, compounds listed under IC50 range headings. Type of assay: biochemical. The essentials: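 Baculovirus-expressed full-length human HDAC8 (1 nM) deacetylated 2 µM fluorescent RHKK(Ac)-NH2 peptide in pH 7.5 HEPES, 1% DMSO, at 25 °C, with 12 compound concentrations at 3× spacing. SDS-quenched; product and substrate resolved by microfluidic electrophoresis, P/(S+P) converted to percent inhibition, and IC50 obtained by 4-parameter fit.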
On the technique in general: In EMSA bound probe runs differently from free probe, usually more slowly.

Consider `O=C(/C=C/c1ccccc1NCc1ccc2nccn2c1)NO` [Example I-103, (E)-N-hydroxy-3-(2-((imidazo[1,2-a]pyridin-6-ylmethyl)amino)phenyl)acrylamide], for which the values for the IC50 in assay [1] and in assay [2] were not above 1000 nM and less than 1000 nM, respectively.
Regarding `O=C(/C=C/c1ccccc1NCc1c[nH]nc1-c1ccc(C(F)(F)F)cc1)NO` [Example I-104], the IC50 in assay [1] was not above 1000 nM; in assay [2] it was less than 1000 nM.
For `NC(=O)CCc1cccc(C(=O)Nc2ccccc2/C=C/C(=O)NO)c1` [Example I-107, (E)-3-(3-amino-3-oxopropyl)-N-(2-(3-(hydroxyamino)-3-oxoprop-1-en-1-yl)phenyl)benzamide], the IC50 in assay [1] is not above 1000 nM; in assay [2] it was less than 1000 nM.
For `O=C(/C=C/c1ccccc1N1CCC2(CCNC2)C1)NO` (centres unmarked) [Example I-113, (E)-3-(2-(2,7-diazaspiro[4.4]nonan-2-yl)phenyl)-N-hydroxyacrylamide 2,2,2-trifluoroacetate], the concentration for half-maximal inhibition (IC50) was not above 1000 nM in assay [1] and less than 1000 nM in assay [2].
For `O=C(/C=C/c1ccccc1N1CCC2(CCNCC2)C1)NO` [Example I-115, (E)-3-(2-(2,8-diazaspiro[4.5]decan-2-yl)phenyl)-N-hydroxyacrylamide 2,2,2-trifluoroacetate], in that order: not above 1000 nM and less than 1000 nM.
For `O=C(/C=C/c1ccncc1NC(=O)c1cccc(C(F)(F)F)c1)NO` [Example I-123, (E)-N-(4-(3-(hydroxyamino)-3-oxoprop-1-enyl)pyridin-3-yl)-3-(trifluoromethyl)benzamide], in that order: not above 1000 nM and less than 1000 nM.
In the same order, the values of `Cc1cc(C(=O)NC2CCN(c3ccccc3/C=C/C(=O)NO)CC2)n[nH]1` [Example I-134, (E)-N-(1-(2-(3-(hydroxyamino)-3-oxoprop-1-en-1-yl)phenyl)piperidin-4-yl)-5-methyl-1H-pyrazole-3-carboxamide] are not above 1000 nM and less than 1000 nM.
Regarding `O=C(/C=C/c1ccccc1N1CCC(NC(=O)c2ccnn2C(F)F)CC1)NO` [Example I-148], the IC50 was not above 1000 nM in assay [1] and less than 1000 nM in assay [2].
On to `O=C(/C=C/c1ccccc1N1CCC(NC(=O)c2ccc3[nH]ccc3c2)CC1)NO` [Example I-153, (E)-N-(1-(2-(3-(hydroxyamino)-3-oxoprop-1-en-1-yl)phenyl)piperidin-4-yl)-1H-indole-5-carboxamide], for which the IC50 in assay [1] is not above 1000 nM; in assay [2], less than 1000 nM.
As for `O=C(/C=C/c1ccccc1N1CCN(Cc2nccs2)CC1)NO` [Example I-170, (E)-N-hydroxy-3-(2-(4-(thiazol-2-ylmethyl)piperazin-1-yl)phenyl)acrylamide], the half-inhibitory concentration (IC50) was not above 1000 nM in assay [1] and less than 1000 nM in assay [2].
Consider `O=C(/C=C/c1ccccc1N1CCN(Cc2cccnc2)CC1)NO` [Example I-179, (E)-N-hydroxy-3-(2-(4-(pyridin-3-ylmethyl)piperazin-1-yl)phenyl)acrylamide], for which the figures for the IC50 in assay [1] and in assay [2] were not above 1000 nM and less than 1000 nM, respectively.
`Cn1cncc1CN1CCN(c2ccccc2/C=C/C(=O)NO)CC1` [Example I-180, (E)-N-hydroxy-3-(2-(4-((1-methyl-1H-imidazol-5-yl)methyl)piperazin-1-yl)phenyl)acrylamide]: the IC50 in assay [1] was not above 1000 nM; in assay [2], less than 1000 nM.
In the same order, the values of `O=C(/C=C/c1ccccc1N1CCN(Cc2ccc(N3CCCC3)nc2)CC1)NO` [Example I-182, (E)-N-hydroxy-3-(2-(4-((6-(pyrrolidin-1-yl)pyridin-3-yl)methyl)piperazin-1-yl)phenyl)acrylamide] are not above 1000 nM and less than 1000 nM.
For `Cc1cc(CN2CCN(c3ccccc3/C=C/C(=O)NO)CC2)n(C)n1` [Example I-183, (E)-3-(2-(4-((1,3-dimethyl-1H-pyrazol-5-yl)methyl)piperazin-1-yl)phenyl)-N-hydroxyacrylamide], in that order: not above 1000 nM and less than 1000 nM.
`Cc1ncsc1C(=O)N1CCN(c2ccccc2/C=C/C(=O)NO)CC1` [Example I-200, (E)-N-hydroxy-3-(2-(4-(4-methylthiazole-5-carbonyl)piperazin-1-yl)phenyl)acrylamide]: the IC50 in assay [1] was not above 1000 nM; in assay [2], less than 1000 nM.
For `O=C(/C=C/c1ccccc1N1CCN(C(=O)c2cnn3c2OCCC3)CC1)NO` [Example I-204, (E)-3-(2-(4-(6,7-dihydro-5H-pyrazolo[5,1-b][1,3]oxazine-3-carbonyl)piperazin-1-yl)phenyl)-N-hydroxyacrylamide], the IC50 was not above 1000 nM in assay [1] and less than 1000 nM in assay [2].
For `O=C(/C=C/c1ccccc1N1CCN(C(=O)c2cn[nH]c2)CC1)NO` [Example I-206], the IC50 is not above 1000 nM in assay [1] and less than 1000 nM in assay [2].
For `O=C(/C=C/c1ccccc1N1CCN(C(=O)c2ccc3[nH]ccc3c2)CC1)NO` [Example I-208, (E)-3-(2-(4-(1H-indole-5-carbonyl)piperazin-1-yl)phenyl)-N-hydroxyacrylamide], in that order: not above 1000 nM and less than 1000 nM.
In the same order, the values of `Cn1ccc(S(=O)(=O)NC2CCN(c3ccccc3/C=C/C(=O)NO)CC2)n1` [Example I-219, (E)-N-hydroxy-3-(2-(4-((1-methyl-1H-pyrazole)-3-sulfonamido)piperidin-1-yl)phenyl)acrylamide] are not above 1000 nM and less than 1000 nM.
In the same order, the values of `Cn1ccnc1S(=O)(=O)N1CCN(c2ccccc2/C=C/C(=O)NO)CC1` [Example I-252, (E)-N-hydroxy-3-(2-(4-((1-methyl-1H-imidazol-2-yl)sulfonyl)piperazin-1-yl)phenyl)acrylamide] are not above 1000 nM and less than 1000 nM.
Regarding `O=C(/C=C/c1ccccc1N1CCC(c2ccccc2)C1=O)NO` (centres unmarked) [Example I-262, (E)-N-hydroxy-3-(2-(2-oxo-3-phenylpyrrolidin-1-yl)phenyl)acrylamide], the half-maximal inhibitory concentration (IC50) was not above 1000 nM in assay [1] and less than 1000 nM in assay [2].
In the same order, the values of `CC(C)(C)OC(=O)N1CCN(c2ccccc2/C=C/C(=O)NO)C(=O)C1` [Example I-263, tert-butyl (E)-4-(2-(3-(hydroxyamino)-3-oxoprop-1-en-1-yl)phenyl)-3-oxopiperazine-1-carboxylate] are not above 1000 nM and less than 1000 nM.
With `Cc1oc(C(C)(C)C)cc1C(=O)Nc1ccccc1/C=C/C(=O)NO` [Example I-265, (E)-5-(tert-butyl)-N-(2-(3-(hydroxyamino)-3-oxoprop-1-en-1-yl)phenyl)-2-methylfuran-3-carboxamide], the values for the IC50 in assay [1] and in assay [2] were not above 1000 nM and less than 1000 nM, respectively.
As for `O=C(/C=C/c1ccccc1NC(=O)c1cnn(-c2ccc(Cl)cc2)c1C(F)(F)F)NO` [Example I-266, (E)-1-(4-chlorophenyl)-N-(2-(3-(hydroxyamino)-3-oxoprop-1-en-1-yl)phenyl)-5-(trifluoromethyl)-1H-pyrazole-4-carboxamide], the results for the IC50 in assay [1] and in assay [2] were not above 1000 nM and less than 1000 nM, respectively.
In the same order, the values of `O=C(/C=C/c1ccccc1NC(=O)c1ccccc1Oc1ccc(Cl)cc1)NO` [Example I-268, (E)-2-(4-chlorophenoxy)-N-(2-(3-(hydroxyamino)-3-oxoprop-1-en-1-yl)phenyl)benzamide] are not above 1000 nM and less than 1000 nM.
